Measurements taken from patent publication US6579882B2, “Cell adhesion-inhibiting antiinflammatory compounds” (Abbott Laboratories, priority 1998, dated 2003).

Compound	melting point
Cc1ccc(Sc2cncc3sc(C(N)=S)cc23)cc1 [Example 41, 4-[(4-methylphenyl)thio]thieno[2,3-c]pyridine-2-carbothioamide]	181 to 183 °C
CCc1cc2c(Sc3ccccn3)ncnc2s1 [Example 3, 6-ethyl-4-(2-pyridinylthio)thieno[2,3-d]pyrimidine]	76.5 to 79 °C
Cc1ccccc1Sc1cncc2sc(C(N)=O)cc12 [Example 48, 4-[(2-methylphenyl)thio]thieno[2,3-c]pyridine-2-carboxamide]	170 to 172 °C
Clc1ccc(Oc2cncc3sc(C4=NCCO4)cc23)cc1 [Example 296, 4-(4-Chlorophenoxy)-2-(4,5-dihydro-1,3-oxazol-2-yl)thieno[2,3-c]pyridine]	158 to 160 °C (dec.)
CSc1nnc(Sc2ncnc3c(C)csc23)s1 [Example 13, 7-methyl-4-[[5-(methylthio)-1,3,4-thiadiazol-2-yl]thio]thieno[3,2-d]pyrimidine]	163 to 166 °C
CCc1cc2c(Nc3nnc(C)s3)ncnc2s1 [Example 9, 6-ethyl-N-(5-methyl-1,3,4-thiadiazol-2-yl)thieno[2,3-d]pyrimidin-4-amine]	277 to 280 °C
Cc1cc(C)cc(Sc2cncc3sc(C(N)=O)cc23)c1 [Example 51, 4-[(3,5-dimethylphenyl)thio]thieno[2,3-c]pyridine-2-carboxamide]	177 to 179 °C
CCOC(=O)c1cnc2sccc2c1Sc1nnc(C)s1 [Example 134, ethyl 4-[(5-methyl-1,3,4-thiadiazol-2-yl)thio]thieno[2,3-b]pyridine-5-carboxylate]	93 to 94 °C
CON=Cc1cc2c(Sc3ccc(C)cc3)cncc2s1 [Example 26, 4-[(4-methylphenyl)thio]thieno[2,3-c]pyridine-2-carboxaldehyde, O-methyloxime]	95 to 98 °C
NC(=O)c1cc2c(Oc3ccc(C(F)(F)F)cc3)cnc(Cl)c2s1 [Example 318, 7-Chloro-4-[4-(trifluoromethyl)phenoxy]thieno[2,3-c]pyridine-2-carboxamide]	175 to 176 °C
NC(=O)c1cc2c(Oc3ccc(COC(=O)c4ccco4)cc3)cncc2s1 [Example 200, 4-[[2-(Aminocarbonyl)thieno[2,3-c]pyridin-4-yl]oxy}benzyl 2-furoate]	180 to 182 °C
C=Cc1ccc(Oc2cncc3sc(C(=O)N(C)C)cc23)cc1 [Example 185, N,N-Dimethyl-4-(4-vinylphenoxy)thieno[2,3-c]pyridine-2-carboxamide]	80 to 81 °C
Oc1ccc(-c2cc3c(Oc4ccc(Cl)cc4)cncc3s2)cc1 [Example 270, 4-[4-(4-Chlorophenoxy)thieno[2,3-c]pyridin-2-yl]phenol]	213 to 215 °C
O=C(Nc1ccc(Cl)cc1)c1cnc2sccc2c1Cl [Example 133, 4-chloro-N-(4-chlorophenyl)thieno[2,3-b]pyridine-5-carboxamide]	199 to 202 °C
CON=C(C)c1cc2c(Oc3ccc(Cl)cc3)cncc2s1 [Example 243A, 1-[4-(4-Chlorophenoxy)thieno[2,3-c]pyridin-2-yl]-1-ethanone O-methyloxime]	126 to 128 °C
Cc1ccc(Sc2cncc3sccc23)cc1 [Example 42, 4-[(4-methylphenyl)thio]thieno[2,3-c]pyridine]	94 to 95 °C
CNC(=O)c1cc2c(Oc3ccc(COC4CCCCO4)cc3)cncc2s1 (centres unmarked) [Example 199, N-Methyl-4-{4-[(tetrahydro-2H-pyran-2-yloxy)methyl]phenoxy}thieno[2,3-c]pyridine-2-carboxamide]	195 to 196 °C
Cc1ccc(Sc2cncc3sc(C(=O)Nc4ccc(Cl)cc4)cc23)cc1 [Example 24, N-(4-chlorophenyl)-4-[(4-methylphenyl)thio]thieno[2,3-c]pyridine-2-carboxamide]	208 to 211 °C
CC(=O)c1cc2c(Sc3ccc(C)cc3)cncc2s1 [Example 33, 1-[4-[(4-methylphenyl)thio]thieno[2,3-c]pyridin-2-yl]ethanone]	134 to 138 °C
CCc1cc2c(Sc3nnc(C)s3)ncnc2s1 [Example 6, 6-ethyl-4-[(5-methyl-1,3,4-thiadiazol-2-yl)thio]thieno[2,3-d]pyrimidine]	132 to 135 °C
CN(C)C(=O)c1cc2c(Oc3ccc(C(F)(F)F)cc3)cncc2s1 [Example 173, N,N-Dimethyl-4-[4-(trifluoromethyl)phenoxy]thieno[2,3-c]pyridine-2-carboxamide]	74 to 76 °C
CNC(=O)c1cc2c(Oc3ccc(C(F)(F)F)cc3)cnc(Cl)c2s1 [Example 319, 7-Chloro-N-methyl-4-[4-(trifluoromethyl)phenoxy]thieno[2,3-c]pyridine-2-carboxamide]	178 to 179 °C
Cc1cccc(Sc2cncc3sc(C(N)=O)cc23)c1 [Example 49, 4-[(3-methylphenyl)thio]thieno[2,3-c]pyridine-2-carboxamide]	171 to 173 °C
Cc1ccc(Sc2cncc3sc(C=NO)cc23)cc1 [Example 30, 4-[(4-methylphenyl)thio]thieno[2,3-c]pyridine-2-carboxaldehyde, oxime]	209 to 210 °C

Compound	melting point
CN(C)C(=O)c1cc2c(Oc3ccc(Br)cc3)cncc2s1 [Example 172, 4-(4-Bromophenoxy)-N,N-dimethylthieno[2,3-c]pyridine-2-carboxamide]	93 to 95 °C
Nc1nnc(-c2cc3c(Oc4ccc(Cl)cc4)cncc3s2)[nH]1 [Example 277, 5-[4-(4-Chlorophenoxy)thieno[2,3-c]pyridin-2-yl]-4H-1,2,4-triazol-3-amine]	> 270 °C
Nc1ccc(-c2cc3c(Oc4ccc(Cl)cc4)cncc3s2)cc1 [Example 272, 4-[4-(4-Chlorophenoxy)thieno[2,3-c]pyridin-2-yl]aniline]	178 to 182 °C
CNC(=O)c1cc2c(Oc3ccc(F)c(F)c3F)cncc2s1 [Example 181, N-Methyl-4-(2,3,4-trifluorophenoxy)thieno[2,3-c]pyridine-2-carboxamide]	170 to 171 °C
COc1ccc(Sc2cncc3sc(C(N)=O)cc23)cc1 [Example 56, 4-[(4-methoxyphenyl)thio]thieno[2,3-c]pyridine-2-carboxamide]	219 to 221 °C
Nc1nc(-c2cc3c(Oc4ccc(Cl)cc4)cncc3s2)no1 (hydrate or solvate) [Example 289, 3-[4-(4-Chlorophenoxy)thieno[2,3-c]pyridin-2-yl]-1,2,4-oxadiazol-5-amine]	268 to 270 °C
NC(=O)NCc1cc2c(Oc3ccc(Cl)cc3)cncc2s1 [Example 258, N-1[4-(4-Chlorophenoxy)thieno[2,3-c]pyridin-2-yl]methyl urea]	202 to 204 °C
NC(=O)/C=C/c1cc2c(Oc3ccc(Cl)cc3)cncc2s1 [Example 92, (E)-3-[4-(4-chlorophenoxy)thieno[2,3-c]pyridin-2-yl]-2-propenamide]	176 to 178 °C
CCC(=NO)c1cc2c(Oc3ccc(Cl)cc3)cncc2s1 [Example 246, 1-[4-(4-Chlorophenoxy)thieno[2,3-c]pyridin-2-yl]-1-propanone oxime]	195 to 198 °C (dec.)
NCCNC(=O)c1cc2c(Oc3ccc(Cl)cc3)cncc2s1 [Example 154, N-(2-Aminoethyl)-4-(4-chlorophenoxy)thieno[2,3-c]pyridine-2-carboxamide]	111 to 114 °C
Nc1ccccc1C(=O)c1cc2c(Oc3ccc(Cl)cc3)cncc2s1 [Example 251, (2-Aminophenyl)[4-(4-chlorophenoxy)thieno[2,3-c]pyridin-2-yl]methanone]	152 to 154 °C
Cc1ccc(Sc2cncc3sc(C(=O)c4ccccc4)cc23)cc1 [Example 34, 2-benzoyl-4-[(4-methylphenyl)thio]thieno[2,3-c]pyridine]	103 to 107 °C
Cc1c(C(N)=O)sc2cncc(Oc3ccc(Br)cc3)c12 [Example 304, 4-(4-Bromophenoxy)-3-methylthieno[2,3-c]pyridine-2-carboxamide]	177 to 178 °C
CON(C)C(=O)c1cc2c(Sc3ccc(C)cc3)cncc2s1 [Example 22, N-methoxy-N-methyl-4-[(4-methylphenyl)thio]thieno[2,3-c]pyridine-2-carboxamide]	103 to 107 °C
Cc1ccc(Sc2ncnc3c(C)csc23)cc1 [Example 11, 7-methyl-4-[(4-methylphenyl)thio]thieno[3,2-d]pyrimidine]	103 to 107 °C
Cc1csc2c(Sc3nnc(N)s3)ncnc12 [Example 14, 4-[(5-amino-1,3,4-thiadiazol-2-yl)thio]-7-methylthieno[3,2-d]pyrimidine]	221 to 223 °C
NC(=O)c1cc2c(Oc3ccc(F)c(F)c3F)cncc2s1 [Example 182, 4-(2,3,4-Trifluorophenoxy)thieno[2,3-c]pyridine-2-carboxamide]	218 to 219 °C
Cc1ccc(Sc2cncc3sc(C=NOc4ccccc4)cc23)cc1 [Example 29, 4-[(4-methylphenyl)thio]thieno[2,3-c]pyridine-2-carboxaldehyde, O-phenyloxime]	94 to 97 °C
CCOC(=O)C1(CC)Cc2c(Sc3ccc(C)cc3)ncnc2S1 (centres unmarked) [Example 7, ethyl 6-ethyl-4-[(4-methylphenyl)thio]thieno[2,3-d]pyrimidine-6-carboxylate]	87.5 to 90 °C
Clc1ccc(Oc2cncc3sc(-c4cccs4)cc23)cc1 [Example 292, 4-(4-Chlorophenoxy)-2-(2-thienyl)thieno[2,3-c]pyridine]	101 to 103 °C
CNC(=O)c1cc2c(Oc3cccc(F)c3F)cncc2s1 [Example 179, 4-(2,3-Difluorophenoxy)-N-methylthieno[2,3-c]pyridine-2-carboxamide]	169 to 171 °C
Cc1ccc(Sc2cncc3sc(C=NOCC(N)=O)cc23)cc1 [Example 31, 2-[[[4-[(4-methylphenyl)thio]thieno[2,3-c]pyridine-2-ylmethylene]amino]oxy]acetamide]	152 to 156 °C
NC(=O)CNC(=O)c1cc2c(Oc3ccc(Cl)cc3)cncc2s1 [Example 160, N-(2-Amino-2-oxoethyl)-4-(4-chlorophenoxy)thieno[2,3-c]pyridine-2-carboxamide]	222 to 225 °C
